Entries after “also recorded” stand apart in the source; their conditions may differ.
Key:
[1] = tested on: L1 β-lactamase production in S. maltophilia K279a; assay: L1 β-lactamase induction by β-lactamase inhibitors (meropenem hydrolysis in cell extracts); type: cell-based; settings: 50 μg.mL^−1 inducer
Method: L1 activity was measured from the cell extracts in a 96-well plate reader by determining meropenem hydrolysis (100 μM) at λ=300 nm. Protein concentration was determined by using BioRad protein assay dye reagent. Specific activity was calculated by using the extinction coefficient of 9600 AU/M/cm and a pathlength correction for the microplate ([…]). Data presented are means +/−SEM, n=3.
Cultures were grown overnight using nutrient broth and used to inoculate (1:100 dilution) 10 ml nutrient broth cultures in sealed 30 ml universal bottles. Cultures were incubated for 2 h with shaking at 37° C. before test inducers were added, or not, and culture was continued for 2 h. Cells were pelleted by centrifugation (4,000×g, 10 min) and pellets treated with 100 μL of BugBuster (Ambion), pipetting up and down a few times before rocking for 10 min at room temperature. […] Protein concentration was determined using the BioRad protein assay reagent concentrate according to the manufacturer's instructions. L1 β-lactamase activity was determined using an Omega Fluostar (BMG Biotech) using meropenem as substrate in half-area 96 well UV-translucent plates (Greiner UV-Star. Bio-one) with 200 μl of 100 μM meropenem solution in assay buffer (60 mM Na2HPO4.7H2O pH 7.0, 40 mM NaH2PO4.H2O, 10 mM KCI, 1 mM MgSO4.7H2O, 100 μM ZnCl2) plus 10 μL of cell extract. […]

S. maltophilia = assay: microbe, parasite or virus in culture; type: cell-based, Stenotrophomonas maltophilia; settings: for MIC of aztreonam in the presence of the β-lactamase inhibitor / MIC of ceftazidime in the presence of the β-lactamase inhibitor / MIC of meropenem in the presence of the β-lactamase inhibitor / ability to potentiate β-lactams / reverse resistance (in words): inhibitor at 2 mg/L; for ability to potentiate β-lactams / reverse resistance (in words): β-lactam and strain named in the value; for MIC of the β-lactam alone (−): no inhibitor
Method: S. maltophilia clinical isolates were K279a, a well characterised isolate from Bristol, UK, or were obtained from the SENTRY antimicrobial resistance survey, as previously reported. […] All growth media were from Oxoid. Chemicals were from Sigma, unless otherwise stated.
Susceptibility to β-lactams in bacterial isolates was determined using the CLSI microtitre minimum inhibitory concentration (MIC) methodology with Muller-Hinton Broth using 96 well plates (Corning, Costar). The MIC was determined as the lowest concentration of β-lactam required to entirely suppress growth. Inhibitor concentrations were kept constant at 2 mg/L or 10 mg/L in all assays. Interpretation of susceptibility/resistance was by reference to CLSI clinical breakpoints for S. maltophilia (ceftazidime) and for Pseudomonas aeruginosa (for aztreonam and meropenem, since no S. maltophilia breakpoints are available).

L2 = L2 (Stenotrophomonas maltophilia (Pseudomonas maltophilia) (Xanthomonas maltophilia), UniProt P96465); assay: Inhibition of purified L2, fluorogenic substrate FC5 as reporter
L2, sequence (P96465 36-303 limits assumed): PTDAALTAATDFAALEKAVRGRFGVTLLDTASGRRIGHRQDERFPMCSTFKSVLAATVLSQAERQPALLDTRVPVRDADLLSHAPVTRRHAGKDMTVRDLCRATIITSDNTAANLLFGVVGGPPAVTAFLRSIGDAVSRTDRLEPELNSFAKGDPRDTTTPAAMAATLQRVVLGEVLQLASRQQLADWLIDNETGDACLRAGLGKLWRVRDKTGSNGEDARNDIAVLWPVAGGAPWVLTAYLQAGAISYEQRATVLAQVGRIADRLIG
Method: Steady state kinetic data were analysed by curve fitting to the Michaeilis-Menten equation using Prism software.

L2 (class A ESBL) = L2 (class A ESBL) (Stenotrophomonas maltophilia (Pseudomonas maltophilia) (Xanthomonas maltophilia), UniProt P96465); assay: Steady-state hydrolysis of β-lactams by purified L2; type: biochemical, S. maltophilia
L2 (class A ESBL), sequence (P96465 36-303 limits assumed): as above
From the text: (§1) As a prelude to investigation the effects of β-lactamase inhibitors, the hydrolysis of a range of candidate β-lactams in vitro by purified L1 (class B3 MBL) and L2 (class A ESBL) under steady state conditions were investigated.

L1 (class B3 MBL) = L1 (class B3 MBL) (Stenotrophomonas maltophilia (Pseudomonas maltophilia) (Xanthomonas maltophilia), UniProt P52700); assay: Steady-state hydrolysis of β-lactams by purified L1; type: biochemical, S. maltophilia
L1 (class B3 MBL), sequence (P52700 whole entry, looked up): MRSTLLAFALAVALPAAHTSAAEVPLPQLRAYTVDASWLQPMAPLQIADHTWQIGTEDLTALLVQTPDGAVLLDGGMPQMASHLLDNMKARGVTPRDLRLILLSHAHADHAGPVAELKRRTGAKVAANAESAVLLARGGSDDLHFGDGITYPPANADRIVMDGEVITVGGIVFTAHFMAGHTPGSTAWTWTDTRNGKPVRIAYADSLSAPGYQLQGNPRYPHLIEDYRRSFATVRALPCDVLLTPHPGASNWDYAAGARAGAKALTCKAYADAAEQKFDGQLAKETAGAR
From the text: as §1

BlaC = BlaC (Mycobacterium tuberculosis (strain ATCC 25618 / H37Rv), UniProt P9WKD3); assay: BlaC inhibition assay (FC5 hydrolysis, fluorescence); type: biochemical
BlaC, sequence (P9WKD3 35-307 limits assumed): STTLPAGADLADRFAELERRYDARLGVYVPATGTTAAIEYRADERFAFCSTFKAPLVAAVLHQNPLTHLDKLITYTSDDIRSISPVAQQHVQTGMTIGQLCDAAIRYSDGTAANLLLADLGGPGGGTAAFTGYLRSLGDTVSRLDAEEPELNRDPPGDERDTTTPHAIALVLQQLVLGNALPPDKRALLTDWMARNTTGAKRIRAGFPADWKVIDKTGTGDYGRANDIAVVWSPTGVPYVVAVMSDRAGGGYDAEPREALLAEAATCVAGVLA
Method: Recombinant BlaC, with an N-terminal His-tag, was produced in E. coli BL21(DE3) cells using auto-induction medium supplemented with 50 μg mL^−1 ampicillin. Cells were grown for four hours at 37° C. before cooling to 18° C. and continuing growth overnight. Cells were harvested by centrifugation (10 min, 10000 g).
FC5 was stored as a 2.5 mM solution in assay buffer supplemented with 10% (v/v) DMSO. Fluorescence measurements were made using a PHERAstar multi-mode plate reader (BMG Labtech). All assays were carried out at 25° C. Fluorescence assays were carried out using black 96 well format half area clear® plates (Greiner Bio-One) with a final assay volume of 100 μL. FC5 hydrolysis was followed by fluorescence (λex=380 nm, λem=460 nm) corresponding to the release of the umbelliferone fluorophore. The optimum concentration of enzyme for steady-state measurements was determined by examining the rate of substrate hydrolysis at varied concentrations of enzyme, with the concentration at which the initial rate remained constant for 5-10 min being selected as an appropriate enzyme concentration. Initial rates of substrate hydrolysis were determined at varying substrate concentrations. Steady-state kinetic parameters were determined by fitting of initial rates to the Michaelis-Menten equation using GraphPad Prism 5 software.
Inhibition assays were performed by monitoring the initial rate of FC5 hydrolysis via fluorescence at a range of inhibitor concentrations. Inhibitors were stored either as solids or as 100 mM stock solutions in DMSO, these were diluted to appropriate concentrations in the assay buffer. Typically inhibition assays were carried out using black 384 well format pclear® plates (Griener Bio-One) with a final assay volume of 25 μL. Enzyme concentrations were chosen to give a linear rate of FC5 hydrolysis over the first 5 min of the assay time with an FC5 concentration of 5 μM. Components were added in the following order and volumes:
The enzyme was incubated with the inhibitor for 10 min prior to initiation of the reaction by the addition of the substrate. The residual activities were calculated using the following formula:
[formula] IC50 values were calculated by fitting of residual residual activity curves using GraphPad Prism 5 software.

[2] = IC50, purified L2, FC5 substrate

Which results are given for `NC(=O)[C@@H]1CC[C@@H]2CN1C(=O)N2OS(=O)(=O)O` [Avibactam]?
induction of L1 production (in words) [1]: neither avibactam nor 2 induces L1 to any measurable extent; MIC of aztreonam in the presence of the β-lactamase inhibitor (S. maltophilia; CI-20): 2 µg/mL; MIC of ceftazidime in the presence of the β-lactamase inhibitor (S. maltophilia; CI-20): 4 µg/mL; MIC of meropenem in the presence of the β-lactamase inhibitor (S. maltophilia; CI-20): 64 µg/mL; MIC of aztreonam in the presence of the β-lactamase inhibitor (S. maltophilia; CI-29): 1 µg/mL; MIC of ceftazidime in the presence of the β-lactamase inhibitor (S. maltophilia; CI-29): 1 µg/mL; MIC of meropenem in the presence of the β-lactamase inhibitor (S. maltophilia; CI-29): 32 µg/mL; MIC of aztreonam in the presence of the β-lactamase inhibitor (S. maltophilia; CI-31): ≤ 4 µg/mL; MIC of ceftazidime in the presence of the β-lactamase inhibitor (S. maltophilia; CI-31): 128 µg/mL; MIC of meropenem in the presence of the β-lactamase inhibitor (S. maltophilia; CI-31): 256 µg/mL; MIC of aztreonam in the presence of the β-lactamase inhibitor (S. maltophilia; CI-31, listed as AVI): 4 µg/mL; MIC of aztreonam in the presence of the β-lactamase inhibitor (S. maltophilia; K279a): 1 µg/mL; MIC of ceftazidime in the presence of the β-lactamase inhibitor (S. maltophilia; K279a): 1 µg/mL; MIC of meropenem in the presence of the β-lactamase inhibitor (S. maltophilia; K279a): 16 µg/mL; MIC of aztreonam in the presence of the β-lactamase inhibitor (S. maltophilia; K AMI 32): 0.5 µg/mL; MIC of ceftazidime in the presence of the β-lactamase inhibitor (S. maltophilia; K AMI 32): 0.5 µg/mL; MIC of meropenem in the presence of the β-lactamase inhibitor (S. maltophilia; K AMI 32): 16 µg/mL; MIC of aztreonam in the presence of the β-lactamase inhibitor (S. maltophilia; K CAZ 10): 1 µg/mL; MIC of ceftazidime in the presence of the β-lactamase inhibitor (S. maltophilia; K CAZ 10): 8 µg/mL; MIC of meropenem in the presence of the β-lactamase inhibitor (S. maltophilia; K CAZ 10): 64 µg/mL; MIC of aztreonam in the presence of the β-lactamase inhibitor (S. maltophilia; K MOX 8): 0.5 µg/mL; MIC of ceftazidime in the presence of the β-lactamase inhibitor (S. maltophilia; K MOX 8): 0.5 µg/mL; MIC of meropenem in the presence of the β-lactamase inhibitor (S. maltophilia; K MOX 8): 16 µg/mL; ability to potentiate β-lactams / reverse resistance (in words) (S. maltophilia): reduce ceftazidime MICs against K279a; IC50 (L2; [2]): 14.4 nM

For `O=C(O)[C@H]1/C(=C/CO)O[C@@H]2CC(=O)N21` [Clavulanic acid], which “induction of L1 production (in words)” value [1] is on record?
The value was “induced L1 production”.

What about the “MIC of aztreonam in the presence of the β-lactamase inhibitor” value (S. maltophilia; CI-20) of the same compound?
Its value is 4 µg/mL.

And the “MIC of ceftazidime in the presence of the β-lactamase inhibitor” value (S. maltophilia; CI-20)?
Its value is 16 µg/mL.

What about the “MIC of meropenem in the presence of the β-lactamase inhibitor” value (S. maltophilia; CI-20) of the same compound?
The value was 32 µg/mL.

And the “MIC of aztreonam in the presence of the β-lactamase inhibitor” value (S. maltophilia; CI-29)?
The value was 1 µg/mL.

What about the “MIC of ceftazidime in the presence of the β-lactamase inhibitor” value (S. maltophilia; CI-29) of the same compound?
Its value is 4 µg/mL.

What about the “MIC of meropenem in the presence of the β-lactamase inhibitor” value (S. maltophilia; CI-29) of the same compound?
The value was 16 µg/mL.

What about the “MIC of aztreonam in the presence of the β-lactamase inhibitor” value (S. maltophilia; CI-31) of the same compound?
Its value is 2 µg/mL.

What about the “MIC of ceftazidime in the presence of the β-lactamase inhibitor” value (S. maltophilia; CI-31) of the same compound?
The value was 128 µg/mL.

And the “MIC of meropenem in the presence of the β-lactamase inhibitor” value (S. maltophilia; CI-31)?
The value was 256 µg/mL.

And the “MIC of aztreonam in the presence of the β-lactamase inhibitor” value (S. maltophilia; K279a)?
The value was 1 µg/mL.

What about the “MIC of ceftazidime in the presence of the β-lactamase inhibitor” value (S. maltophilia; K279a) of the same compound?
Its value is 4 µg/mL.

What about the “MIC of meropenem in the presence of the β-lactamase inhibitor” value (S. maltophilia; K279a) of the same compound?
The value was 32 µg/mL.

And the “MIC of aztreonam in the presence of the β-lactamase inhibitor” value (S. maltophilia; K AMI 32)?
The value was 0.5 µg/mL.

And the “MIC of ceftazidime in the presence of the β-lactamase inhibitor” value (S. maltophilia; K AMI 32)?
Its value is 1 µg/mL.

What about the “MIC of meropenem in the presence of the β-lactamase inhibitor” value (S. maltophilia; K AMI 32) of the same compound?
The value was 8 µg/mL.

And the “MIC of aztreonam in the presence of the β-lactamase inhibitor” value (S. maltophilia; K CAZ 10)?
Its value is 0.5 µg/mL.

And the “MIC of ceftazidime in the presence of the β-lactamase inhibitor” value (S. maltophilia; K CAZ 10)?
The value was 8 µg/mL.

What about the “MIC of meropenem in the presence of the β-lactamase inhibitor” value (S. maltophilia; K CAZ 10) of the same compound?
Its value is 8 µg/mL.

And the “MIC of aztreonam in the presence of the β-lactamase inhibitor” value (S. maltophilia; K MOX 8)?
Its value is 0.25 µg/mL.

What about the “MIC of ceftazidime in the presence of the β-lactamase inhibitor” value (S. maltophilia; K MOX 8) of the same compound?
The value was 1 µg/mL.

What about the “MIC of meropenem in the presence of the β-lactamase inhibitor” value (S. maltophilia; K MOX 8) of the same compound?
Its value is 8 µg/mL.

And the “ability to potentiate β-lactams / reverse resistance (in words)” value (S. maltophilia)?
Its value is “does not reduce the MIC of ceftazidime against S. maltophilia K279a; also recorded: reduces the aztreonam MIC against K279a”.

What about the IC50 (L2; [2]) of the same compound?
Its IC50 is 22.3 nM.

What about the IC50 (L2; pIC50, purified L2, FC5 substrate) of the same compound?
Its IC50 is 38.9 nM.

What does the source list for `C[C@@H](O)[C@H]1C(=O)N2C(C(=O)O)=C(S[C@@H]3CN[C@H](C(=O)N(C)C)C3)[C@H](C)[C@H]12` [Meropenem]?
Km (L2 (class A ESBL)): 28.8 µM; kcat (L2 (class A ESBL)): 0.028 s⁻¹; kcat/KM (L2 (class A ESBL)): 0.97 (μM^−1 · s^−1) × 10^−3; MIC of the β-lactam alone (−) (S. maltophilia; CI-20): 64 µg/mL; MIC of the β-lactam alone (−) (S. maltophilia; CI-29): 32 µg/mL; MIC of the β-lactam alone (−) (S. maltophilia; CI-31): 256 µg/mL; MIC of the β-lactam alone (−) (S. maltophilia; K279a): 8 µg/mL; MIC of the β-lactam alone (−) (S. maltophilia; K AMI 32): 4 µg/mL; MIC of the β-lactam alone (−) (S. maltophilia; K CAZ 10): 64 µg/mL; MIC of the β-lactam alone (−) (S. maltophilia; K MOX 8): 4 µg/mL; Km (L1 (class B3 MBL)): 105 µM; kcat (L1 (class B3 MBL)): 23.8 s⁻¹; kcat/KM (L1 (class B3 MBL)): 227 (μM^−1 · s^−1) × 10^−3; pIC50 (BlaC; pre-incubation time 0 min): 5.72 ± 0.06; pIC50 (BlaC; pre-incubation time 10 min): 6.41 ± 0.05; pIC50 (BlaC; pre-incubation time 60 min): 7.16 ± 0.03

Which pIC50 (BlaC; pre-incubation time 0 min) does the source give for `C[C@@H](O)[C@H]1C(=O)N2C(C(=O)O)=C(SCCN=CN)C[C@H]12` [Imipenem] here?
Its pIC50 is 5.59 ± 0.01.

What about the pIC50 (BlaC; pre-incubation time 10 min) of the same compound?
The pIC50 was 6.09 ± 0.02.

And the pIC50 (BlaC; pre-incubation time 60 min)?
The pIC50 was 6.45 ± 0.05.
